Experimental findings from patent US20040038958A1, “Topical treatment of skin diseases” (priority 2002, published 2004) are described below.

Entries after “also recorded” stand apart in the source; their conditions may differ.

This experiment deals with mice sensitized to TDI (long term exposure). Kind of experiment: TDI induced ear swelling after long term (120 days) repeated exposure sensitization. The experiment is classed as in vivo. The following applies: 120 days sensitization, AWD 12-281 3% 1 h after challenge. On the procedure:
FIG. 4: Effect of AWD 12-281 on TDI induced ear swelling in mice sensitized to TDI using a long term (120 days) repeated exposure sensitization paradigm. Bars represent ear swelling 1, 5 and 24 h after TDI challenge.
Furthermore, an experiment was carried out to obtain information on the therapeutic effects of AWD 12-281 in a model of long term exposure to TDI. Thus 10 mice were treated with 100 μl 0.5% TDI on the abdominal skin in intervals of 10 days for 120 days. Ten days after the last abdominal TDI treatment, mice were challenged on the left ear with 20 μl 0.5% TDI, split in 10 μl onto the outer and inner surface of the ear, respectively. One hour after TDI challenge 5 mice were treated with AWD 12-281 (3%), 5 mice were sham treated. Before as well as 1, 5 and 24 h after challenge, the ear thickness was measured.

With `O=C(Nc1c(Cl)cncc1Cl)C(=O)c1cn(Cc2ccc(F)cc2)c2ccc(O)cc12` [AWD 12-281, N-(3,5-Dichloro-4-pyridinyl)-2-[1-(4-fluoro-benzyl)-5-hydroxy-1 H-indol-3-yl]-2-oxoacetamide], the “TDI induced ear swelling” value runs as follows: (1 and 5 h after challenge) “no significant difference between the groups”; (5 h after challenge) “slight inhibition”; (24 h after challenge) “nearly abolished the TDI induced swelling; also recorded: inhibited the swelling significantly”.
